These results are taken from patent EP0505937A1, “Flavone derivatives, a process for the preparation thereof and pharmaceutical compositions containing them” (GEYMONAT S.p.A., priority 1991, dated 1992).

The assay deals with T1, porcine pancreatic elastase (Sus scrofa, UniProt P00772).
T1 construct: purchased Sigma n.E. 0.127
Description: antielastase activity (method of Bieth and coll., cleavage of N-succinyl-L-alanyl-L-alanyl-L-alanyl-para-nitroanilide, UV at 410 nm). It is filed as biochemical. Here is the method:
The antielastase activity of compounds (I) was evidenced by the method described by Bieth and coll. (Biochim. med. [formula] 350 (1974)), with slight changes when the test compounds were poorly water-soluble.
The determination of the antielastase activity was carried out using porcine pancreatic elastase (90 U/mg/weight; 120 U/mg protein-biuret-n.E. 0.127 Sigma) as the enzyme in solution. The enzyme-containing solution was prepared dissolving the enzyme in 0,2 M phosphate buffer, pH 8, to a final concentration of 1 microgram/ml.
The substrate solution was N-succinyl-L-alanyl-L-alanyl-L-alanyl-para-nitroanilide (available from Sigma cat. N.S. 4760). The substrate was dissolved in dimethylsulfoxide to a concentration of […] (125 mM).
The procedure to determine the antielastase activity consisted of the following steps: • 2,9 ml of the enzyme solution with antielastase activity were placed into a quartz cuvette with 10 mm optical path, then 0,5 ml of bidistilled water were added. This standard solution was subsequently added with the different solutions of the various inhibitors.
The test solutions (standard and standard + inhibitor) were incubated at 30°C for 10', then 20 µl of substrate were added and the solution in the cuvette was stirred. The UV spectrum was recorded at 410 nm for 10' with a Beckman mod. 24 spectrophotometer against a blank consisting of the same enzyme-free standard solution.

Where [1] appears, read: enzyme 1 microgram/ml in 0,2 M phosphate buffer, pH 8, incubated at 30°C for 10', read-out: I₅₀ (converted).

SMILES strings stand for the structures. Read-outs that look alike come from different tables or passages of the source.

T1 sequence (P00772 27-266): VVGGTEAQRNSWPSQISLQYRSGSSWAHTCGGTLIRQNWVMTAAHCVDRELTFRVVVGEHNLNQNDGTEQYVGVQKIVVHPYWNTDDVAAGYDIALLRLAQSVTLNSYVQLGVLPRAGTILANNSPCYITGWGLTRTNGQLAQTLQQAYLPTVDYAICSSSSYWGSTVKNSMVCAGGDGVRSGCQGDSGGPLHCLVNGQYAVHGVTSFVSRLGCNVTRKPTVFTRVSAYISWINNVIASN

Regarding `COc1ccc(-c2cc(=O)c3c(O)cc(O[C@@H]4O[C@H](CO[C@@H]5O[C@@H](C)[C@H](O)[C@@H](O)[C@H]5O)[C@@H](O)[C@H](O)[C@H]4O)cc3o2)cc1O` [Diosmin], the antielastase activity result (at the minimum concentration obtained (about 10 mg/ml)) was “absence of any antielastase activity”.

As to `COc1ccc([C@@H]2CC(=O)c3c(O)cc(O[C@@H]4O[C@H](CO[C@@H]5O[C@@H](C)[C@H](O)[C@@H](O)[C@H]5O)[C@@H](O)[C@H](O)[C@H]4O)cc3O2)cc1O` [Esperidin], the IC50 is 934 µM.

Regarding `COc1ccc(-c2cc(=O)c3c(O)cc(O[C@@H]4O[C@H](CO[C@@H]5O[C@@H](C)[C@H](O)[C@@H](O)[C@H]5O)[C@@H](O)[C@H](O)[C@H]4O)cc3o2)cc1OCCO` [Hydrosmin, 3'-hydroxyethyldiosmin], the IC50 under setting [1] is 955 µM. The same measure, in the same setting: the figure for `C[C@@H]1O[C@@H](OC[C@H]2O[C@@H](Oc3c(-c4ccc(O)c(O)c4)oc4cc(O)cc(O)c4c3=O)[C@H](O)[C@@H](O)[C@@H]2O)[C@H](O)[C@H](O)[C@H]1O` [Rutin] is 983 µM.
